Activity calls are given as the source filed them. The calls are words filed in the database; no cut-off is given here.

The values that follow come from ChEMBL document CHEMBL1759985, “In vitro anticancer activity and evaluation of DNA duplex binding affinity of phenyl-substituted indoloquinolines” (Bioorg Med Chem Lett, 2011).

In assay [1] the test system is Nucleic Acid. Put plainly: Binding affinity to duplex DG DNA assessed as DNA intercalation by circular dichroism spectra analysis. The format is nucleic-acid assay. (In general: CD spectra are sensitive to the conformation of chiral molecules.)
In assay [2] the test system is Nucleic Acid. Put plainly: Binding affinity to duplex DG DNA in 0.02 M cacodylate buffer assessed as change in melting temperature at 10 uM at pH 7 by UV spectrophotometer analysis. The format is nucleic-acid assay.
Assay [3] has as its system Nucleic Acid. Nature of the assay: Binding affinity to duplex DG DNA in 0.02 M cacodylate buffer assessed as change in melting temperature at 10 uM at pH 7 by UV spectrophotometer analysis in presence of 0.1 M sodium chloride. The format is nucleic-acid assay.
The test system of assay [4] is Nucleic Acid. Put plainly: Binding affinity to duplex DA DNA in 0.02 M cacodylate buffer assessed as change in melting temperature at 10 uM at pH 7 by UV spectrophotometer analysis. Format: nucleic-acid assay.
Assay [5] has as its system Nucleic Acid. Put plainly: Binding affinity to duplex DA DNA in 0.02 M cacodylate buffer assessed as change in melting temperature at 10 uM at pH 7 by UV spectrophotometer analysis in presence of 0.1 M sodium chloride. The format is nucleic-acid assay.
For assay [6], the system named is Nucleic Acid. Nature of the assay: Binding affinity to duplex DM DNA in 0.02 M cacodylate buffer assessed as change in melting temperature at 10 uM at pH 7 by UV spectrophotometer analysis. Format: nucleic-acid assay.
Assay [7] relates to Nucleic Acid. Put plainly: Binding affinity to duplex DM DNA in 0.02 M cacodylate buffer assessed as change in melting temperature at 10 uM at pH 7 by UV spectrophotometer analysis in presence of 0.1 M sodium chloride. Format: nucleic-acid assay.
In a further assay the test system is 5637. Put plainly: Cytotoxicity against human 5637 cells assessed after 92 hrs by microtiter assay. The format is functional, cell-based. Conditions: Homo sapiens, 5637, 92 h.
Another assay has as its system RT-4. Nature of the assay: Cytotoxicity against human RT4 cells after 92 hrs by microtiter assay. The format is functional, cell-based. The note with it: RT-4, 92 h.
Another assay has as its system A-427. Put plainly: Cytotoxicity against human A427 cells after 92 hrs by microtiter assay. Format: functional, cell-based. The note with it: A-427, 92 h.
Assay [8] is described as follows: Cytotoxicity against human LCLC-103H cells after 92 hrs by microtiter assay. The format is functional, cell-based.
In a further assay the test system is DAN-G. Nature of the assay: Cytotoxicity against human DAN-G cells after 92 hrs by microtiter assay. Format: functional, cell-based.
The test system of the next assay is MCF7. Nature of the assay: Cytotoxicity against human MCF7 cells after 92 hrs by microtiter assay. Format: functional, cell-based. Conditions: MCF7, 92 h.
Assay [9] deals with Nucleic Acid. Put plainly: Binding affinity to duplex DG DNA in 0.02 M cacodylate buffer assessed as melting temperature at 10 uM at pH 7 by UV spectrophotometer analysis. Format: nucleic-acid assay.
Assay [10] concerns Nucleic Acid. Nature of the assay: Binding affinity to duplex DG DNA in 0.02 M cacodylate buffer assessed as melting temperature at 10 uM at pH 7 by UV spectrophotometer analysis in presence of 0.1 M sodium chloride. The format is nucleic-acid assay.
For assay [11], the system named is Nucleic Acid. Nature of the assay: Binding affinity to duplex DA DNA in 0.02 M cacodylate buffer assessed as melting temperature at 10 uM at pH 7 by UV spectrophotometer analysis. Format: nucleic-acid assay.
Assay [12] relates to Nucleic Acid. Nature of the assay: Binding affinity to duplex DA DNA in 0.02 M cacodylate buffer assessed as melting temperature at 10 uM at pH 7 by UV spectrophotometer analysis in presence of 0.1 M sodium chloride. Format: nucleic-acid assay.
Assay [13] relates to Nucleic Acid. Put plainly: Binding affinity to duplex DM DNA in 0.02 M cacodylate buffer assessed as melting temperature at 10 uM at pH 7 by UV spectrophotometer analysis. Format: nucleic-acid assay.
Assay [14] relates to Nucleic Acid. Nature of the assay: Binding affinity to duplex DM DNA in 0.02 M cacodylate buffer assessed as melting temperature at 10 uM at pH 7 by UV spectrophotometer analysis in presence of 0.1 M sodium chloride. The format is nucleic-acid assay.
For assay [15], the system named is Nucleic Acid. Nature of the assay: Binding affinity to duplex DG DNA at 0.75 uM by fluorescence emission spectral analysis. The format is nucleic-acid assay.
The subject of assay [16] is Nucleic Acid. Put plainly: Displacement of ethidium bromide from duplex DG DNA after 5 mins. Format: nucleic-acid assay.

For orientation: ΔTm means the shift of the melting midpoint relative to a reference. The IC50 is the concentration at which inhibition is half-maximal. By Tm is commonly meant the temperature at which the thermal transition is half complete. Turning to `COc1cccc2c(-c3ccc(C(=O)NCCN(C)C)cc3)c3[nH]c4c(OC)cccc4c3nc12`, the outcome with Nucleic Acid [1] and in the assay on Nucleic Acid [15] was Active. The shift in melting temperature (ΔTm) in the assay with Nucleic Acid [2] is 1.7 °C; in the assay with Nucleic Acid [3], -0.5 °C; in the assay with Nucleic Acid [4], 2.5 °C; with Nucleic Acid [5], 0.5 °C; in the assay with Nucleic Acid [6], 3.1 °C; in the assay with Nucleic Acid [7] it was 0.5 °C. Besides, the half-inhibitory concentration (IC50) with 5637 was 2.1 µM; in the assay with RT-4, 3.6 µM; in the assay with A-427 it was 1.7 µM; in [8] it was 3.2 µM; with DAN-G, 3.6 µM; with MCF7, 2.9 µM. Also, the Tm with Nucleic Acid [9] is 42.4 °C; with Nucleic Acid [10], 52 °C; in the assay with Nucleic Acid [11], 35.3 °C; in the assay with Nucleic Acid [12], 45.3 °C; in the assay on Nucleic Acid [13], 32.8 °C; in the assay on Nucleic Acid [14], 40.6 °C. Further, the C50 in the assay with Nucleic Acid [16] turned out to be 93 µM.

On to `COC(=O)c1ccc(-c2c3cccc(C)c3nc3c2[nH]c2c(C)cccc23)cc1`, for which the half-maximal inhibitory concentration (IC50) was above 20 µM with 5637; above 20 µM in the assay with RT-4; above 20 µM with A-427; above 20 µM in assay [8]; above 20 µM in the assay on DAN-G; 13.8 µM in the assay on MCF7.

For the compound `Cc1cccc2c(-c3ccc(C(=O)NCCN(C)C)cc3)c3[nH]c4c(C)cccc4c3nc12`, the thermal shift (ΔTm) in the assay on Nucleic Acid [2] was 0.8 °C; in the assay on Nucleic Acid [3], -0.9 °C; in the assay on Nucleic Acid [4], 1.5 °C; with Nucleic Acid [5], 0.3 °C; in the assay with Nucleic Acid [6] it was 1 °C; in the assay on Nucleic Acid [7], 0.2 °C. For the same compound, the half-inhibitory concentration (IC50) was 3.2 µM in the assay with 5637; 4.2 µM in the assay with RT-4; 3.2 µM with A-427; 3.7 µM in [8]; 2.6 µM with DAN-G; 3 µM with MCF7. The melting temperature (Tm) with Nucleic Acid [9] came to 41.5 °C; with Nucleic Acid [10], 51.6 °C; in the assay on Nucleic Acid [11] it was 34.3 °C; in the assay with Nucleic Acid [12], 45.1 °C; in the assay with Nucleic Acid [13], 30.7 °C; in the assay on Nucleic Acid [14], 40.3 °C.

As for `COC(=O)c1ccc(-c2c3cccc(OC)c3nc3c2[nH]c2c(OC)cccc23)cc1`, the half-inhibitory concentration (IC50) in the assay on 5637 is 11 µM; in the assay with RT-4 it was above 20 µM; in the assay on A-427, 16.6 µM; in assay [8], above 20 µM; in the assay with DAN-G, above 20 µM; in the assay on MCF7 it was above 20 µM.
